Columns and labels:
Assay in all cases: DiscoverX KINOMEscan kinase profiling (468 assays)
Assay type in all cases: binding
human kinome [1] = target: human kinome (Homo sapiens, UniProt P42684); conditions: ABL2; 100 nM; read-out: Percent Control
Summary of the method: (§1)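 DNA-tagged kinases competed for immobilized biotinylated ligands on streptavidin magnetic beads, with bound kinase quantified by qPCR. VIP152 in DMSO was tested against a DMSO control.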

human kinome [2] = target: human kinome (Homo sapiens, UniProt P07949); conditions: kinase RET (Entrez RET); compound concentration 1000 nM; read-out: Percent Control
Summary of the method: as §1

human kinome [3] = target: human kinome (Homo sapiens, UniProt Q8NEV4); conditions: read-out: Percent Control
Chain of human kinome (Homo sapiens, UniProt Q8NEV4) (Q8NEV4 whole entry): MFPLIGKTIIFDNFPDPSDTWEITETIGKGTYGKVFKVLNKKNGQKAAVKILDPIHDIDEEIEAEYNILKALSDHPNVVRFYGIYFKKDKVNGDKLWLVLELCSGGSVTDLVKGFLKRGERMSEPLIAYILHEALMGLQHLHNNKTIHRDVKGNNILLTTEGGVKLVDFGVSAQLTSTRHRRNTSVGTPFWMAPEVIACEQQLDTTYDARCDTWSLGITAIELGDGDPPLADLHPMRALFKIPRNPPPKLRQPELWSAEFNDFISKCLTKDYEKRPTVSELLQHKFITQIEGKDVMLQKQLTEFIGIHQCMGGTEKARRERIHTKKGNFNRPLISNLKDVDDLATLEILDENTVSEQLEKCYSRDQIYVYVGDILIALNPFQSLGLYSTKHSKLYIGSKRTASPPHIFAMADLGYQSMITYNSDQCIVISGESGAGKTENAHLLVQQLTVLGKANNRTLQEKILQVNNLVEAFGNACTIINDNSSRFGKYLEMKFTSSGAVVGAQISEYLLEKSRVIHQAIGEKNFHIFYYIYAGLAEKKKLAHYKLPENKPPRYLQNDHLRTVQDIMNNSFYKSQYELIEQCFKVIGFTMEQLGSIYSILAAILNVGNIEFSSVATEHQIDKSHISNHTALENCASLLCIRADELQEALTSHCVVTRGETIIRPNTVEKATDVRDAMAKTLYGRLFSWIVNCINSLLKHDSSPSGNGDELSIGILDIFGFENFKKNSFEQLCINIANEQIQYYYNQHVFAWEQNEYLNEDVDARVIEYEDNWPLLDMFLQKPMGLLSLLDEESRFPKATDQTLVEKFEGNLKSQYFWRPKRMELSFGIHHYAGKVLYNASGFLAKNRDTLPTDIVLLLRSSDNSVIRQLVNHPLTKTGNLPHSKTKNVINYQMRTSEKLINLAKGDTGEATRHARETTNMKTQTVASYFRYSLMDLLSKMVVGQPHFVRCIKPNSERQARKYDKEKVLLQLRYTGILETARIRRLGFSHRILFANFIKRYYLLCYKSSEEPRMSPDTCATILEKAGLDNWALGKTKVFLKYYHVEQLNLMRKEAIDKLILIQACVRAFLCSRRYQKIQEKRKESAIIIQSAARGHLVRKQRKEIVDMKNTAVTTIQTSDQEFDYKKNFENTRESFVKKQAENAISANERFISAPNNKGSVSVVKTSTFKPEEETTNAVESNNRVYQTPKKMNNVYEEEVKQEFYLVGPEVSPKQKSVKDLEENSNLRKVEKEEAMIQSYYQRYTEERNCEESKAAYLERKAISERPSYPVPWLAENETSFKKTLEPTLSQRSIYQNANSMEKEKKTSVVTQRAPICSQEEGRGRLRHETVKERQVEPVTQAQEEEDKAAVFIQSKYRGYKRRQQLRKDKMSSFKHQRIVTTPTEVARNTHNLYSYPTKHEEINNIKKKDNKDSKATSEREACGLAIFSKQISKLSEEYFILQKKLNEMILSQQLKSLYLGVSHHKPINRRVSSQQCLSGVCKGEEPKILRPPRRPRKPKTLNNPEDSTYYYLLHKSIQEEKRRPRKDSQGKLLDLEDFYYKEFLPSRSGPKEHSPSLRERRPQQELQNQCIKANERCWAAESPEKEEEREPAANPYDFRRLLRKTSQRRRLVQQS
Summary of the method: as §1

human kinome [4] = target: human kinome (Homo sapiens, UniProt P11362); conditions: FGFR1; 100 nM; read-out: Percent Control
Summary of the method: as §1

human kinome [5] = target: human kinome (Homo sapiens, UniProt Q9Y3S1); conditions: kinase WNK2 (Entrez WNK2); compound concentration 1000 nM; read-out: Percent Control
Summary of the method: as §1

human kinome [6] = target: human kinome (Homo sapiens, UniProt O95835); conditions: LATS1; 100 nM; read-out: Percent Control
Summary of the method: as §1

human kinome [7] = target: human kinome (Homo sapiens, UniProt Q13554); conditions: CAMK2B; 100 nM; read-out: Percent Control
Summary of the method: as §1

human kinome [8] = target: human kinome (Homo sapiens, UniProt O75460); conditions: ERN1; 100 nM; read-out: Percent Control
Summary of the method: as §1

human kinome [9] = target: human kinome (Homo sapiens, UniProt P29376); conditions: LTK; 100 nM; read-out: Percent Control
Summary of the method: as §1

human kinome [10] = target: human kinome (Homo sapiens, UniProt O75914); conditions: read-out: Percent Control
Chain of human kinome (Homo sapiens, UniProt O75914) (O75914 whole entry): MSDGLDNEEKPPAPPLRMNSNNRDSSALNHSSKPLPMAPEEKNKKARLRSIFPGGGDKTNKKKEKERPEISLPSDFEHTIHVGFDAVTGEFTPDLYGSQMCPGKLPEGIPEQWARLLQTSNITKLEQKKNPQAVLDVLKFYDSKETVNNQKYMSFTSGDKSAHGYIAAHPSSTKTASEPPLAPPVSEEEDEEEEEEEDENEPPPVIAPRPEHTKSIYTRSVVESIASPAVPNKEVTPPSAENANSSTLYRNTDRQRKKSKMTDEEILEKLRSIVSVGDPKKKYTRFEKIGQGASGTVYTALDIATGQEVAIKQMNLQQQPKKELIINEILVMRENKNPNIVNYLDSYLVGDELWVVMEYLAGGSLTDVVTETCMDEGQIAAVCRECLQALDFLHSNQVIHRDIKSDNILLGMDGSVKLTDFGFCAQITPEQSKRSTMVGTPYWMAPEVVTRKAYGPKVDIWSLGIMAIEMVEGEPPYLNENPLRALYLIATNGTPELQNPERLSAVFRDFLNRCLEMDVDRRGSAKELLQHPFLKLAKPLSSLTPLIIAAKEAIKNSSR
Summary of the method: as §1

human kinome [11] = target: human kinome (Homo sapiens, UniProt P42681); conditions: kinase TXK (Entrez TXK); compound concentration 1000 nM; read-out: Percent Control
Summary of the method: as §1

human kinome [12] = target: human kinome (Homo sapiens, UniProt Q9UPZ9); conditions: ICK; 100 nM; read-out: Percent Control
Summary of the method: as §1

human kinome [13] = target: human kinome (Homo sapiens, UniProt O75116); conditions: kinase ROCK2 (Entrez ROCK2); compound concentration 1000 nM; read-out: Percent Control
Summary of the method: as §1

human kinome [14] = target: human kinome (Homo sapiens, UniProt P53778); conditions: read-out: Percent Control
Summary of the method: as §1

human kinome [15] = target: human kinome (Homo sapiens, UniProt P29322); conditions: EPHA8; 100 nM; read-out: Percent Control
Summary of the method: as §1

human kinome [16] = target: human kinome (Homo sapiens, UniProt P22607); conditions: FGFR3; 100 nM; read-out: Percent Control
Summary of the method: as §1

human kinome [17] = target: human kinome (Homo sapiens, UniProt P52333); conditions: JAK3(JH1domain-catalytic); 100 nM; read-out: Percent Control
Summary of the method: as §1

human kinome [18] = target: human kinome (Homo sapiens, UniProt P19525); conditions: read-out: Percent Control
Chain of human kinome (Homo sapiens, UniProt P19525) (P19525 whole entry): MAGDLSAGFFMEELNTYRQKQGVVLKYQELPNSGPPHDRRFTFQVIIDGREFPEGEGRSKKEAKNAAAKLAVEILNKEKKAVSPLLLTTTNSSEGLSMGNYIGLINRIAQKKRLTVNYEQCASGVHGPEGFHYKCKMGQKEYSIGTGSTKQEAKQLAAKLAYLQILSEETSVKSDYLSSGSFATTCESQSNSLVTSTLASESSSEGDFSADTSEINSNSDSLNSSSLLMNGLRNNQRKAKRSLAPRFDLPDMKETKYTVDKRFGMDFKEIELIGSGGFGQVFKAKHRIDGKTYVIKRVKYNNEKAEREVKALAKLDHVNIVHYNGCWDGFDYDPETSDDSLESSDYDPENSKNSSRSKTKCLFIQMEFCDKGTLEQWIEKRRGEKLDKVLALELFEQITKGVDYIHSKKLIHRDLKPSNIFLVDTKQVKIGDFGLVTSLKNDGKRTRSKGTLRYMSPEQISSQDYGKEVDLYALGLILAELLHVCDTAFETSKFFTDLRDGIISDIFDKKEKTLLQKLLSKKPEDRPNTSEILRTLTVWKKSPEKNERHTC
Summary of the method: as §1

human kinome [19] = target: human kinome (Homo sapiens, UniProt P31751); conditions: AKT2; 100 nM; read-out: Percent Control
Summary of the method: as §1

human kinome [20] = target: human kinome (Homo sapiens, UniProt P42336, E545A); conditions: read-out: Percent Control
Chain of human kinome (Homo sapiens, UniProt P42336, E545A) (P42336 whole entry E545A): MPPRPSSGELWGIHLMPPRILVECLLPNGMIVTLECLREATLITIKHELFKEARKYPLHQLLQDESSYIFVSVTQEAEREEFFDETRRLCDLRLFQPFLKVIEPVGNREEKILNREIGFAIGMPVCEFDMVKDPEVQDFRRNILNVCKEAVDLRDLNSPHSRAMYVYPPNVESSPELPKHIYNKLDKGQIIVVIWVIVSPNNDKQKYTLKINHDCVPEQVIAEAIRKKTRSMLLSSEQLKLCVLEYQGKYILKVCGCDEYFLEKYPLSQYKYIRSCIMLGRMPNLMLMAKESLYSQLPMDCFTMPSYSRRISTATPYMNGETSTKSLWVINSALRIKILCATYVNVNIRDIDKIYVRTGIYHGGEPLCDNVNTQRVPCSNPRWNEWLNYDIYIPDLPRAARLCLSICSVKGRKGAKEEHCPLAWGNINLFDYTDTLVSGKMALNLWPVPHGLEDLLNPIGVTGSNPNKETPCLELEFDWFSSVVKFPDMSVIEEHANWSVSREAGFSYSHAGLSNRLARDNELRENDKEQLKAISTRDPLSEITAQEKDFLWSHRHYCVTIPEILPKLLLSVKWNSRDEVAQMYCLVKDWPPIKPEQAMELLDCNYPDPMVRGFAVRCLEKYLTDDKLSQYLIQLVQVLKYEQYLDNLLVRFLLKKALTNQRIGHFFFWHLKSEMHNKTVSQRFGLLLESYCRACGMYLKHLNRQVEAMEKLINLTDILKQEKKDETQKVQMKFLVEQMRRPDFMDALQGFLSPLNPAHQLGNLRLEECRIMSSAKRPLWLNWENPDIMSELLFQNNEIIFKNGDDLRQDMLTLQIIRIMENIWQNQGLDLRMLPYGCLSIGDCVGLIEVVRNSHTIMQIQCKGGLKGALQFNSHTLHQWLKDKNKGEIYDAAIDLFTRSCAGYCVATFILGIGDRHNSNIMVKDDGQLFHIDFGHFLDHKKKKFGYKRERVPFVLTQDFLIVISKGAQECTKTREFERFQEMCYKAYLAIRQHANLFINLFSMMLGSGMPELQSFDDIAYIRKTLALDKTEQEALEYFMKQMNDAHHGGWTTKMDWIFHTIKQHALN
Summary of the method: as §1

human kinome [21] = target: human kinome (Homo sapiens, UniProt P37173); conditions: kinase TGFBR2 (Entrez TGFBR2); compound concentration 1000 nM; read-out: Percent Control
Summary of the method: as §1

human kinome [22] = target: human kinome (Homo sapiens, UniProt P10721, L576P); conditions: KIT(L576P); 100 nM; read-out: Percent Control
Summary of the method: as §1

human kinome [23] = target: human kinome (Homo sapiens, UniProt O00750); conditions: read-out: Percent Control
Summary of the method: as §1

human kinome [24] = target: human kinome (Homo sapiens, UniProt P51957); conditions: read-out: Percent Control
Chain of human kinome (Homo sapiens, UniProt P51957) (P51957 whole entry): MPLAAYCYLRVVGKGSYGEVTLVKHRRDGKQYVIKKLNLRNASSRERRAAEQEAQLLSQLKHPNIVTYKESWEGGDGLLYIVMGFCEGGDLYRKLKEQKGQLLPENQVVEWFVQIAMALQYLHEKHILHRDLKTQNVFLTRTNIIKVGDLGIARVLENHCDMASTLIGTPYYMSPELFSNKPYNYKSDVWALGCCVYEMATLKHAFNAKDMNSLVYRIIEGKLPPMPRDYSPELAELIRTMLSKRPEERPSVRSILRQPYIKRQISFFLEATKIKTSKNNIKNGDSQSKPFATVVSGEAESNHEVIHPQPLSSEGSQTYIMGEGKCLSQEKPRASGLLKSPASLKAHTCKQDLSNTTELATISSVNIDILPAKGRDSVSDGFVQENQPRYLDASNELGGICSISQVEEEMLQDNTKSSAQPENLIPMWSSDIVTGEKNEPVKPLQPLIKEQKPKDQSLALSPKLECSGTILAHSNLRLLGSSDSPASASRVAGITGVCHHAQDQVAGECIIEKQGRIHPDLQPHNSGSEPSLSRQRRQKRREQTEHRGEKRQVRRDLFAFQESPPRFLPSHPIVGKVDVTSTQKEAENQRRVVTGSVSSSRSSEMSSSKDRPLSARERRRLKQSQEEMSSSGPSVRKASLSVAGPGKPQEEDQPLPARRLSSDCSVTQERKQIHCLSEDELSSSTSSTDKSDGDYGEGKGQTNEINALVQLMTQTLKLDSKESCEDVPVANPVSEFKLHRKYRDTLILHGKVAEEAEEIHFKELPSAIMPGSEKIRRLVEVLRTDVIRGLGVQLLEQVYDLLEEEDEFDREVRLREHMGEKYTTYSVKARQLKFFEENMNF
Summary of the method: as §1

human kinome [25] = target: human kinome (Homo sapiens, UniProt P16591); conditions: FER; 100 nM; read-out: Percent Control
Summary of the method: as §1

human kinome [26] = target: human kinome (Homo sapiens, UniProt Q56UN5); conditions: kinase YSK4 (Entrez MAP3K19); compound concentration 1000 nM; read-out: Percent Control
Summary of the method: as §1

human kinome [27] = target: human kinome (Homo sapiens, UniProt Q15759); conditions: read-out: Percent Control
Chain of human kinome (Homo sapiens, UniProt Q15759) (Q15759 whole entry): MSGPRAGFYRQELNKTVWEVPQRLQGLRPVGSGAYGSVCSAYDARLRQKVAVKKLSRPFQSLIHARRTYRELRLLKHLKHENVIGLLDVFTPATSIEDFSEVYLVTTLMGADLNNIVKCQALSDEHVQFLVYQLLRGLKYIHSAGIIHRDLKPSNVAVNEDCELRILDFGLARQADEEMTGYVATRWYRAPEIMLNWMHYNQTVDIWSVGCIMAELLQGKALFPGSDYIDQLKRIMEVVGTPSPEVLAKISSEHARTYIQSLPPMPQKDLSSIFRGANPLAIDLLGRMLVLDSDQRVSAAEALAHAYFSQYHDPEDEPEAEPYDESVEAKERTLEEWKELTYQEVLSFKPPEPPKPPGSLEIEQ
Summary of the method: as §1

human kinome [28] = target: human kinome (Homo sapiens, UniProt O15197); conditions: EPHB6; 100 nM; read-out: Percent Control
Summary of the method: as §1

human kinome [29] = target: human kinome (Homo sapiens, UniProt Q96PN8); conditions: kinase TSSK3 (Entrez TSSK3); compound concentration 1000 nM; read-out: Percent Control
Summary of the method: as §1

`COc1cc(F)ccc1-c1cc(Nc2cc(CS(C)(=N)=O)ccn2)ncc1F` (stereo not shown) [VIP152] showed a remaining binding at 0.1 µM (human kinome [1]) of 100%, a remaining binding at 1 µM (human kinome [2]) of 94% and a remaining binding at 0.1 µM (human kinome [3]; MYO3A, 100 nM) of 100%. It also gave a remaining binding at 1 µM (human kinome [3]; kinase MYO3A (Entrez MYO3A), compound concentration 1000 nM) of 90%, a remaining binding at 0.1 µM (human kinome [4]) of 100% and a remaining binding at 1 µM (human kinome [5]) of 85%. The remaining binding at 0.1 µM (human kinome [6]) was 100%, the remaining binding at 0.1 µM (human kinome [7]) was 100% and the remaining binding at 0.1 µM (human kinome [8]) was 88%. It also gave a remaining binding at 0.1 µM (human kinome [9]) of 96%, a remaining binding at 0.1 µM (human kinome [10]; PAK3, 100 nM) of 100% and a remaining binding at 1 µM (human kinome [10]; kinase PAK3 (Entrez PAK3), compound concentration 1000 nM) of 62%. For the same compound, the remaining binding at 1 µM (human kinome [11]) was 83%, the remaining binding at 0.1 µM (human kinome [12]) was 95% and the remaining binding at 1 µM (human kinome [13]) was 87%. It also gave a remaining binding at 1 µM (human kinome [14]; kinase p38-gamma (Entrez MAPK12), compound concentration 1000 nM) of 100%, a remaining binding at 0.1 µM (human kinome [14]; p38-gamma (Entrez MAPK12), 100 nM) of 76% and a remaining binding at 0.1 µM (human kinome [15]) of 100%. It also gave a remaining binding at 0.1 µM (human kinome [16]) of 100%, a remaining binding at 0.1 µM (human kinome [17]) of 100% and a remaining binding at 0.1 µM (human kinome [18]; PRKR (Entrez EIF2AK2), 100 nM) of 100%. For the same compound, the remaining binding at 1 µM (human kinome [18]; kinase PRKR (Entrez EIF2AK2), compound concentration 1000 nM) was 100%, the remaining binding at 0.1 µM (human kinome [19]) was 100% and the remaining binding at 0.1 µM (human kinome [20]; PIK3CA(E545A), 100 nM) was 71%. For the same compound, the remaining binding at 1 µM (human kinome [20]; kinase PIK3CA(E545A) (Entrez PIK3CA), compound concentration 1000 nM) was 98%, the remaining binding at 1 µM (human kinome [21]) was 93% and the remaining binding at 0.1 µM (human kinome [22]) was 100%. It also gave a remaining binding at 0.1 µM (human kinome [23]; PIK3C2B, 100 nM) of 100%, a remaining binding at 1 µM (human kinome [23]; kinase PIK3C2B (Entrez PIK3C2B), compound concentration 1000 nM) of 90% and a remaining binding at 0.1 µM (human kinome [24]; NEK4, 100 nM) of 100%. For the same compound, the remaining binding at 1 µM (human kinome [24]; kinase NEK4 (Entrez NEK4), compound concentration 1000 nM) was 100%, the remaining binding at 0.1 µM (human kinome [25]) was 100% and the remaining binding at 1 µM (human kinome [26]) was 19%. For the same compound, the remaining binding at 1 µM (human kinome [27]; kinase p38-beta (Entrez MAPK11), compound concentration 1000 nM) was 100%, the remaining binding at 0.1 µM (human kinome [27]; p38-beta (Entrez MAPK11), 100 nM) was 100% and the remaining binding at 0.1 µM (human kinome [28]) was 87%. It also gave a remaining binding at 1 µM (human kinome [29]) of 76%.

From PMC9898036, “VIP152 is a selective CDK9 inhibitor with pre-clinical in vitro and in vivo efficacy in chronic lymphocytic leukemia” (Leukemia, 2022)
